Test results: US9770479B2, “Extract of Rehmannia glutinasa Libosch for reducing blood sugar, reducing blood fat, treating leukemia, and preparation method and uses thereof” (priority 2007, dated 2017)
Marks after values point to notes of the source that are not given here.

Tests used:
[1] = system: acute nonlymphocytic leukemia (ANLL) cell; test: Apoptosis induction / DNA fragments percentage in ANLL bone marrow cells; format: cell-based, human; settings: for DNA fragments percentage: n 15
Description: (§1) In order to investigate catalpol and the Rehmannia glutinasa Libosch. extract according to the present invention for their effect of inducing apoptosis in leukemia cells as well as the mechanism, bone marrows and HL260 cells from 15 patients with acute nonlymphocytic leukemia (ANLL) were mixed with catalpol and co-cultivated for 24 hr, and then different test methods including cytomorphologic means, DNA gel electrophoresis and DNA fragments percentage analysis were adopted to observe the effect on apoptosis in leukemia cells.

HL260 cell = test: Apoptosis induction / DNA fragments percentage in HL260 cells; format: cell-based; settings: for DNA fragments percentage: n 4
Description: as §1

[2] = system: Alloxan-Induced Hyperglycemic Mice; test: Blood glucose in alloxan-induced hyperglycemic mice; format: in vivo, Kunming mice; settings: 500 mg/Kg intragastric daily
Experimental: Male Kunming mice weighing 25-29 g
Raising condition: The mice were housed in a laboratory animal room of 2nd grade that was ventilated regularly with the temperature controlled at 20-24° C.
Male mice were selected and firstly fasted for 6 hr, and alloxan was injected into tail vein at a dose of 60 mg/kg. After 72 hr, the mice having blood glucose values […] were selected as experimental animals and grouped.
The alloxan-induced hyperglycemic mice were randomly divided into groups labeled as normal control, model control, low-dose A, mid-dose A, high-dose A, DD, B, C, D, E and F. Subsequently, intragastric administration was performed for 15 consecutive days. 16 hours after the last administration, the mice were fasted for 8 hr. Blood glucose values before administration, and at 1 hour after administration for 5 days, 10 day and 15 days were tested respectively on blood collected from the inguinal vein, and the results were as follows: […]

[3] = system: Spontaneous Hyperglycemic KK Mice; test: Blood glucose in spontaneous hyperglycemic KK mice (type II diabetes model); format: in vivo; settings: 500 mg/kg intragastric once a day
Experimental: Forty male and female KK diabetes mice weighing about 40 g were separately housed at a temperature of […] and fed on a fat-heavy diet and arbitrary amount of water. After being fast food but not fast water for 2 hr, 10 μl blood collected from the tail veins was tested for blood glucose values, and mice having blood glucose value ≧8.0 mmol/L were selected.
The mice obtained from the above step were randomly divided into groups labeled as model control, low-dose A, mid-dose A, high-dose A, DD, B, C, D, E and F. Subsequently, intragastric administration was performed once a day for 15 consecutive days. Blood glucose values before administration, and at one hour after administration for 5 days, 10 day and 15 days (fast food but not fast water for two hours after last administration) were tested respectively, and the results were as follows: […]

bcl22 = test: Immunohistochemical protein expression of gene bcl22 in bone marrow cells; format: cell-based, human; settings: bone marrow cells before and after treatment; immunohistochemical method
Description: as §1

[4] = table section 'after treating with the extract for 24 hrs', 10 μg · ml^−1
[5] = table section 'at 24 hrs after treatment with catalpol', 10 μg · ml^−1
[6] = table section 'after treating with the extract for 24 hrs', 10 − 7 mol · L^−1
[7] = table section 'at 24 hrs after treatment with catalpol', 10 − 7 mol · L^−1
[8] = co-cultivated 24 hr, cytomorphology, DNA gel electrophoresis, DNA fragments percentage

## Nc1ccn([C@@H]2O[C@H](CO)[C@@H](O)[C@@H]2O)c(=O)n1 [Ara2c]
[1]; [4]
  DNA fragments percentage: 39.7 ± 7.9%
[1]; [5]
  DNA fragments percentage: 40.1 ± 8.2%
HL260 cell; [4]
  DNA fragments percentage: 27.0 ± 1.1%
HL260 cell; [5]
  DNA fragments percentage: 28.2 ± 1.4%

## CN(C)C(=N)NC(=N)N [DD, dimethyl diguanidine]
[2]; 0 day (before administration)
  Blood Glucose Value: 19.7 mmol/L
[2]; 5 days
  Blood Glucose Value: 12.5** mmol/L
[2]; 10 days
  Blood Glucose Value: 13.2** mmol/L
[2]; 15 days
  Blood Glucose Value: 14.0** mmol/L
[3]; 0 day (before administration)
  Blood Glucose Value: 13.36 ± 2.85 mmol/L
[3]; 5 days
  Blood Glucose Value: 11.16 ± 3.19 mmol/L
[3]; 10 days
  Blood Glucose Value: 10.03 ± 2.11 mmol/L
[3]; 15 days
  Blood Glucose Value: 8.84 ± 4.51 mmol/L

## COC(=O)C[C@](O)(CCCC(C)(C)O)C(=O)O[C@@H]1C(OC)=C[C@]23CCCN2CCc2cc4c(cc2[C@H]13)OCO4 [HHT]
[1]; [6]
  DNA fragments percentage: 36.2 ± 5.0%
[1]; [7]
  DNA fragments percentage: 38.1 ± 5.1%
HL260 cell; [6]
  DNA fragments percentage: 25.3 ± 1.0%
HL260 cell; [7]
  DNA fragments percentage: 26.1 ± 1.2%

## OC[C@H]1O[C@@H](O[C@@H]2OC=C[C@H]3[C@H](O)[C@@H]4O[C@]4(CO)[C@@H]23)[C@H](O)[C@@H](O)[C@@H]1O [catalpol]
[1]; [8]
  induction of apoptosis: able to induce apoptosis
HL260 cell; [8]
  induction of apoptosis: able to induce apoptosis
bcl22
  protein expression of gene bcl22: obviously lowered
